{"source": "ChEMBL document CHEMBL5052856", "about": "“Inhibitors of apol1 and methods of using same” (2021)", "key": {"Apolipoprotein L1": {"biological_target": "Apolipoprotein L1 (Homo sapiens, UniProt O14791)", "experiment": "Inhibition of APOL1 G1 variant in human HEK293-T-REx cells measured by Thallium assay", "type": "cell-based"}, "[1]": {"system": "Trypanosoma brucei brucei", "experiment": "Antitrypanosomal activity against Trypanosoma brucei brucei assessed as trypanosome lysis using recombinant APOL1 protein G1 variant and measured by Alamar blue based fluoresence assay", "type": "functional, organism-based"}}, "data": [{"smiles": "O=C([C@H]1C[C@H](c2c(-c3ccc(F)cc3)[nH]c3c(F)cc(F)cc32)C1)N1CCCC1CCO", "note": "(some centres undefined)", "values": [{"measurement": "IC50", "setting": "Apolipoprotein L1", "value": "> 1000", "unit": "nM"}, {"measurement": "IC50", "setting": "[1]", "value": 250, "unit": "nM"}]}, {"smiles": "O=C([C@H]1C[C@H](c2c(-c3ccc(F)cc3)[nH]c3c(F)cc(F)cc32)C1)N1CCC[C@@H](CO)C1", "values": [{"measurement": "IC50", "setting": "Apolipoprotein L1", "value": "> 1000", "unit": "nM"}, {"measurement": "IC50", "setting": "[1]", "value": "> 1000", "unit": "nM"}]}, {"smiles": "Cn1cnc(CNC(=O)[C@H]2C[C@H](c3c(-c4ccc(F)cc4)[nH]c4c(F)cc(F)cc43)C2)c1", "values": [{"measurement": "IC50", "setting": "Apolipoprotein L1", "value": "< 250", "unit": "nM"}, {"measurement": "IC50", "setting": "[1]", "value": "< 250", "unit": "nM"}]}, {"smiles": "COCC1(NC(=O)[C@H]2C[C@H](c3c(-c4ccc(F)cc4)[nH]c4c(F)cc(F)cc43)C2)CC1", "values": [{"measurement": "IC50", "setting": "Apolipoprotein L1", "value": "< 250", "unit": "nM"}, {"measurement": "IC50", "setting": "[1]", "value": "< 250", "unit": "nM"}]}, {"smiles": "O=C(NCCO)[C@H]1C[C@H](c2c(-c3ccc(F)cc3)[nH]c3c(F)cc(F)cc32)C1", "values": [{"measurement": "IC50", "setting": "Apolipoprotein L1", "value": "< 250", "unit": "nM"}, {"measurement": "IC50", "setting": "[1]", "value": "< 250", "unit": "nM"}]}, {"smiles": "CC(C)(O)C1CN(C(=O)[C@H]2C[C@H](c3c(-c4ccc(F)cc4)[nH]c4c(F)cc(F)cc43)C2)C1", "values": [{"measurement": "IC50", "setting": "Apolipoprotein L1", "value": "> 1000", "unit": "nM"}, {"measurement": "IC50", "setting": "[1]", "value": "> 1000", "unit": "nM"}]}, {"smiles": "CC(O)CN(C)C(=O)[C@H]1C[C@H](c2c(-c3ccc(F)cc3)[nH]c3c(F)cc(F)cc32)C1", "note": "(some centres undefined)", "values": [{"measurement": "IC50", "setting": "Apolipoprotein L1", "value": "> 1000", "unit": "nM"}, {"measurement": "IC50", "setting": "[1]", "value": 250, "unit": "nM"}]}, {"smiles": "CC(=O)C1CCCCN1C(=O)[C@H]1C[C@H](c2c(-c3ccc(F)cc3)[nH]c3c(F)cc(F)cc32)C1", "note": "(some centres undefined)", "values": [{"measurement": "IC50", "setting": "Apolipoprotein L1", "value": "> 1000", "unit": "nM"}, {"measurement": "IC50", "setting": "[1]", "value": 250, "unit": "nM"}]}, {"smiles": "CC(C)N1CCN(C(=O)[C@H]2C[C@H](c3c(-c4ccc(F)cc4)[nH]c4c(F)cc(F)cc43)C2)CC1=O", "values": [{"measurement": "IC50", "setting": "Apolipoprotein L1", "value": "> 1000", "unit": "nM"}, {"measurement": "IC50", "setting": "[1]", "value": "> 1000", "unit": "nM"}]}, {"smiles": "CC1(C)CN(C(=O)[C@H]2C[C@H](c3c(-c4ccc(F)cc4)[nH]c4c(F)cc(F)cc43)C2)CC1O", "note": "(some centres undefined)", "values": [{"measurement": "IC50", "setting": "Apolipoprotein L1", "value": "> 1000", "unit": "nM"}, {"measurement": "IC50", "setting": "[1]", "value": "> 1000", "unit": "nM"}]}, {"smiles": "CN(CC(C)(C)O)C(=O)[C@H]1C[C@H](c2c(-c3ccc(F)cc3)[nH]c3c(F)cc(F)cc32)C1", "values": [{"measurement": "IC50", "setting": "Apolipoprotein L1", "value": "> 1000", "unit": "nM"}, {"measurement": "IC50", "setting": "[1]", "value": "> 1000", "unit": "nM"}]}, {"smiles": "O=C(NC(CO)CF)[C@H]1C[C@H](c2c(-c3ccc(F)cc3)[nH]c3c(F)cc(F)cc32)C1", "note": "(some centres undefined)", "values": [{"measurement": "IC50", "setting": "Apolipoprotein L1", "value": "< 250", "unit": "nM"}, {"measurement": "IC50", "setting": "[1]", "value": "< 250", "unit": "nM"}]}, {"smiles": "O=C(NCc1ccn[nH]1)[C@H]1C[C@H](c2c(-c3ccc(F)cc3)[nH]c3c(F)cc(F)cc32)C1", "values": [{"measurement": "IC50", "setting": "Apolipoprotein L1", "value": 0.25, "unit": "nM"}, {"measurement": "IC50", "setting": "[1]", "value": 250, "unit": "nM"}]}, {"smiles": "CC(N)(C(=O)NC(=O)[C@H]1C[C@H](c2c(-c3ccc(F)cc3)[nH]c3c(F)cc(F)cc32)C1)C(F)(F)F", "note": "(some centres undefined)", "values": [{"measurement": "IC50", "setting": "Apolipoprotein L1", "value": "> 1000", "unit": "nM"}, {"measurement": "IC50", "setting": "[1]", "value": 250, "unit": "nM"}]}, {"smiles": "CN(CCO)C(=O)[C@H]1C[C@H](c2c(-c3ccc(F)cc3)[nH]c3c(F)cc(F)cc32)C1", "values": [{"measurement": "IC50", "setting": "Apolipoprotein L1", "value": "< 250", "unit": "nM"}, {"measurement": "IC50", "setting": "[1]", "value": "< 250", "unit": "nM"}]}, {"smiles": "O=C([C@H]1C[C@H](c2c(-c3ccc(F)cc3)[nH]c3c(F)cc(F)cc32)C1)N(CCO)C1CC1", "values": [{"measurement": "IC50", "setting": "Apolipoprotein L1", "value": "< 250", "unit": "nM"}, {"measurement": "IC50", "setting": "[1]", "value": 250, "unit": "nM"}]}, {"smiles": "O=C([C@H]1C[C@H](c2c(-c3ccc(F)cc3)[nH]c3c(F)cc(F)cc32)C1)N1CCC(O)(CO)CC1", "values": [{"measurement": "IC50", "setting": "Apolipoprotein L1", "value": "> 1000", "unit": "nM"}, {"measurement": "IC50", "setting": "[1]", "value": "> 1000", "unit": "nM"}]}, {"smiles": "COCC1(CNC(=O)[C@H]2C[C@H](c3c(-c4ccc(F)cc4)[nH]c4c(F)cc(F)cc43)C2)CC1", "values": [{"measurement": "IC50", "setting": "Apolipoprotein L1", "value": "> 1000", "unit": "nM"}, {"measurement": "IC50", "setting": "[1]", "value": "> 1000", "unit": "nM"}]}, {"smiles": "Cn1ccc(CNC(=O)[C@H]2C[C@H](c3c(-c4ccc(F)cc4)[nH]c4c(F)cc(F)cc43)C2)n1", "values": [{"measurement": "IC50", "setting": "Apolipoprotein L1", "value": 0.25, "unit": "nM"}, {"measurement": "IC50", "setting": "[1]", "value": "< 250", "unit": "nM"}]}, {"smiles": "O=C(CNC(=O)[C@H]1C[C@H](c2c(-c3ccc(F)cc3)[nH]c3c(F)cc(F)cc32)C1)NC1CC1", "values": [{"measurement": "IC50", "setting": "Apolipoprotein L1", "value": "> 1000", "unit": "nM"}, {"measurement": "IC50", "setting": "[1]", "value": "> 1000", "unit": "nM"}]}, {"smiles": "Cc1cc(CNC(=O)[C@H]2C[C@H](c3c(-c4ccc(F)cc4)[nH]c4c(F)cc(F)cc43)C2)nn1C", "values": [{"measurement": "IC50", "setting": "Apolipoprotein L1", "value": "> 1000", "unit": "nM"}, {"measurement": "IC50", "setting": "[1]", "value": 250, "unit": "nM"}]}, {"smiles": "O=C([C@H]1C[C@H](c2c(-c3ccc(F)cc3)[nH]c3c(F)cc(F)cc32)C1)N1CC(O)C(N2CCOCC2)C1", "note": "(some centres undefined)", "values": [{"measurement": "IC50", "setting": "Apolipoprotein L1", "value": "> 1000", "unit": "nM"}, {"measurement": "IC50", "setting": "[1]", "value": "> 1000", "unit": "nM"}]}, {"smiles": "C[C@H](NC(=O)[C@H]1C[C@H](c2c(-c3ccc(F)cc3)[nH]c3c(F)cc(F)cc32)C1)C(=O)N(C)C", "values": [{"measurement": "IC50", "setting": "Apolipoprotein L1", "value": 0.25, "unit": "nM"}, {"measurement": "IC50", "setting": "[1]", "value": 250, "unit": "nM"}]}, {"smiles": "O=C([C@H]1C[C@H](c2c(-c3ccc(F)cc3)[nH]c3c(F)cc(F)cc32)C1)N1CC(n2cccn2)C1", "values": [{"measurement": "IC50", "setting": "Apolipoprotein L1", "value": "> 1000", "unit": "nM"}, {"measurement": "IC50", "setting": "[1]", "value": "> 1000", "unit": "nM"}]}, {"smiles": "NC(=O)C1(NC(=O)[C@H]2C[C@H](c3c(-c4ccc(F)cc4)[nH]c4c(F)cc(F)cc43)C2)CC1", "values": [{"measurement": "IC50", "setting": "Apolipoprotein L1", "value": 0.25, "unit": "nM"}, {"measurement": "IC50", "setting": "[1]", "value": 250, "unit": "nM"}]}, {"smiles": "CN(C(=O)[C@H]1C[C@H](c2c(-c3ccc(F)cc3)[nH]c3c(F)cc(F)cc32)C1)C1(CO)CC1", "values": [{"measurement": "IC50", "setting": "Apolipoprotein L1", "value": 0.25, "unit": "nM"}, {"measurement": "IC50", "setting": "[1]", "value": 250, "unit": "nM"}]}, {"smiles": "CO[C@H]1CCN(C(=O)[C@H]2C[C@H](c3c(-c4ccc(F)cc4)[nH]c4c(F)cc(F)cc43)C2)C1", "values": [{"measurement": "IC50", "setting": "Apolipoprotein L1", "value": "> 1000", "unit": "nM"}, {"measurement": "IC50", "setting": "[1]", "value": "> 1000", "unit": "nM"}]}, {"smiles": "O=C([C@H]1C[C@H](c2c(-c3ccc(F)cc3)[nH]c3c(F)cc(F)cc32)C1)N1C[C@@H](CO)OCC12CC2", "values": [{"measurement": "IC50", "setting": "Apolipoprotein L1", "value": "> 1000", "unit": "nM"}, {"measurement": "IC50", "setting": "[1]", "value": "> 1000", "unit": "nM"}]}, {"smiles": "O=C(NCC1(O)CCCCC1)[C@H]1C[C@H](c2c(-c3ccc(F)cc3)[nH]c3c(F)cc(F)cc32)C1", "values": [{"measurement": "IC50", "setting": "Apolipoprotein L1", "value": "> 1000", "unit": "nM"}, {"measurement": "IC50", "setting": "[1]", "value": "> 1000", "unit": "nM"}]}, {"smiles": "CN(C)C(=O)CN(C)C(=O)[C@H]1C[C@H](c2c(-c3ccc(F)cc3)[nH]c3c(F)cc(F)cc32)C1", "values": [{"measurement": "IC50", "setting": "Apolipoprotein L1", "value": 0.25, "unit": "nM"}, {"measurement": "IC50", "setting": "[1]", "value": "> 1000", "unit": "nM"}]}, {"smiles": "O=C(NCC1(O)CCCC1)[C@H]1C[C@H](c2c(-c3ccc(F)cc3)[nH]c3c(F)cc(F)cc32)C1", "values": [{"measurement": "IC50", "setting": "Apolipoprotein L1", "value": "> 1000", "unit": "nM"}, {"measurement": "IC50", "setting": "[1]", "value": "> 1000", "unit": "nM"}]}, {"smiles": "O=C(NCC1(O)CCC1)[C@H]1C[C@H](c2c(-c3ccc(F)cc3)[nH]c3c(F)cc(F)cc32)C1", "values": [{"measurement": "IC50", "setting": "Apolipoprotein L1", "value": "> 1000", "unit": "nM"}, {"measurement": "IC50", "setting": "[1]", "value": "> 1000", "unit": "nM"}]}]}
